# From US20260274955A1, “ANTIBODIES FOR TARGETING CD28 AND USES THEREOF” (Janux Therapeutics, Inc., priority 2023, published 2026)
# Like-named read-outs stand apart in the source and are kept apart here.
# Key:
# [1] = biological target: anti-CD28 Fab (SEQ ID NOs: 202, 203); experiment: Competition ELISA: peptide inhibition of anti-CD28 Fab binding to plate-bound CD28 (also alanine scanning peptides); conditions: anti-CD28 Fab fixed at 1 nM
# Protocol: Ab-1 fixed at 1 nanomolar (nM) concentration was pre-incubated with 0-100 micromolar (μM) titrated peptides. After a short pre-incubation period, the mixture of titrated peptide with fixed Ab-1 were added to the CD28 antigen coated plates. After a short incubation on the plates, bound Ab-1 was detected with a standard horse radish peroxidase conjugated secondary antibody.
# (§1) The anti-CD28 Fab was fixed at a concentration of 1 nM and incubated with titrated 0-100 μM peptides.
# [2] = biological target: anti-CD28 scFv (disulfide) (SEQ ID NO: 67); experiment: Competition ELISA: peptide inhibition of anti-CD28 scFv (disulfide) binding to plate-bound CD28
# Protocol: […] After a short pre-incubation period, the mixture of titrated peptide with fixed Ab-1 were added to the CD28 antigen coated plates. After a short incubation on the plates, bound Ab-1 was detected with a standard horse radish peroxidase conjugated secondary antibody.
# as §1
# [3] = biological target: anti-CD28 scFv (SEQ ID NO: 35); experiment: Kinetic binding by bio-layer interferometry (Octet RED96): anti-CD28 scFv to peptides; design: species or system human; conditions: for Kd: CD28 scFv titrated 100-12.5 nM, 200 nM peptide load
# Protocol: (§2) Briefly, streptavidin biosensors were loaded with biotinylated peptides and baselined in buffer. […] After a short association period, sensors were transferred into buffer and the dissociation of bound anti-CD28 scFv was measured. The timing and steps of the experiment are shown in the accompanying table. Association and dissociation signals were recorded in real time and analyzed using a 1:1 binding model within the instrument software. Analysis using a 1:1 binding model enabled the calculation of the on and off rate constants as well as affinity, KD.
# as §2, with “KD. FIGS. 48A-48F illustrate kinetic binding of anti-CD28 scFv binding to peptides as measured by Octet. FIGS. 48G-48U illustrate kinetic binding of peptides to the anti-CD28 scFv as measured by Octet.” for “KD.”
# [4] = tested on: anti-CD28 Fab (SEQ ID NOs: 202, 203); experiment: Kinetic binding via BLI: peptides to anti-CD28 Fab; conditions: for Off rate t½: Table 18, anti-CD28 Fab; for Kd / t½: binding to anti-CD28 Fab
# Protocol: Kinetic binding of the peptides of Table 1 to Ab-1 was evaluated using biolayer interferometry (BLI). […] Ab-1 was titrated in solution and associated onto the peptide loaded sensor. After a short association period, sensors were transferred into buffer and the dissociation of bound Ab-1 was measured. Association and dissociation signals were recorded in real time and analyzed using a 1:1 binding model within the instrument software. Analysis using a 1:1 binding model enabled the calculation of the on and off rate constants as well as affinity, KD.
# Kinetic binding of the peptides to anti-CD28 Fab (SEQ ID NOs: 202, 203) was evaluated using BLI as described above.
# [5] = titrated 0-100 μM peptides, plate-bound CD28 antigen, read-out: anti-CD28 Fab Competition ELISA IC50
# [6] = read-out: anti-CD28 scFv (disulfide) Competition ELISA IC50, anti-CD28 scFv fixed at 0.3 nM, titrated 0-100 μM peptides, plate-bound CD28 antigen
# [7] = Table 18, 0-100 μM peptide, read-out: Competition ELISA IC50
# [8] = Table 17, 0-100 μM peptide, read-out: Competition ELISA IC50
# [9] = BLI Octet RED96, biotinylated peptide loaded on streptavidin sensor, anti-CD28 scFv 100-12.5 nM, 1:1 binding model
# [10] = Table 19, anti-CD28 scFv (disulfide) fixed at 0.3 nM, 0-100 μM peptide, read-out: Competition ELISA IC50
# anti-CD28 Fab (SEQ ID NOs: 202, 203), sequence (as listed by the source): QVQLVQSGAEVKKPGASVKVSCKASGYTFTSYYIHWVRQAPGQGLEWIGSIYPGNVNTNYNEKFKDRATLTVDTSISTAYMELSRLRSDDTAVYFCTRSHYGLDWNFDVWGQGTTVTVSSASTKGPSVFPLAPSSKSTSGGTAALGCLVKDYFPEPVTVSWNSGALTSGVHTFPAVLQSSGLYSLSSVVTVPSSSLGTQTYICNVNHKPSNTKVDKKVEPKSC
# anti-CD28 Fab (SEQ ID NOs: 202, 203), sequence (as listed by the source): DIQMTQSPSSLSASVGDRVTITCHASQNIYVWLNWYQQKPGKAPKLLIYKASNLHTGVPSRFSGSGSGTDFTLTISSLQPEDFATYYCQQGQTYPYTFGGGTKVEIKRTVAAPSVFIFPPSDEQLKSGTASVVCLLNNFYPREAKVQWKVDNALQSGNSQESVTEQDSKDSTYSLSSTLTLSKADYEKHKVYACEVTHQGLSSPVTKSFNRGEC
# anti-CD28 scFv (SEQ ID NO: 35), sequence (as listed by the source): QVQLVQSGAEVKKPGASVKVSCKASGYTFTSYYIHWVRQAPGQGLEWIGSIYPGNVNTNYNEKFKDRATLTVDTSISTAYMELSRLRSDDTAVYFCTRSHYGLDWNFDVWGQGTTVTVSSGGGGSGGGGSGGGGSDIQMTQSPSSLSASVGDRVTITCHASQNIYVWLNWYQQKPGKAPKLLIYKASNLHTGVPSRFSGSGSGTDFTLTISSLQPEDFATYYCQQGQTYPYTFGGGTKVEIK
# anti-CD28 scFv (disulfide) (SEQ ID NO: 67), sequence (as listed by the source): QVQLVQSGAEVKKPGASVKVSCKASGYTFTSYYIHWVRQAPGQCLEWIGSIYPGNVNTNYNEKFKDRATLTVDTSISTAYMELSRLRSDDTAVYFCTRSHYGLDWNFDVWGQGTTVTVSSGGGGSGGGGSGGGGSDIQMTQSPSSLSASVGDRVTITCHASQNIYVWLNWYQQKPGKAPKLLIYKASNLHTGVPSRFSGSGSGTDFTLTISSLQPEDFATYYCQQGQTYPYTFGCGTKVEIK
sequence,measurement,setting,value
"ACAGHAWQYINKCL [Peptide-59, alanine scanning peptide of Peptide-39]",IC50,[1]; [5],> 100 µM
same,IC50,[2]; [6],> 100 µM
GYCHYWGDMVMWCG [Peptide-118],Kd,"[3]; Table 28, 1:1 model",0.017 µM
same,kdis,"[3]; Table 28, CD28 scFv, 1:1 model",0.00167 s⁻¹
same,kon,"[3]; Table 28, CD28 scFv, 1:1 model",98700 M⁻¹ s⁻¹
"HCSGHHWLQVWKCF [Peptide-82, optimization library of Peptide-39]",IC50,[1]; [7],> 100 µM
"LCAAGFTYPWPLCL [Peptide-107, optimization library of Peptide-44]",IC50,[1]; [8],> 100 µM
"LCKPGVPYKWPTCL [Peptide-108, optimization library of Peptide-44]",IC50,[1]; [8],> 100 µM
MDWCPIDLWNECFF [Peptide-137],kdis,[3]; [9],0.00369 s⁻¹
same,kon,[3]; [9],51400 M⁻¹ s⁻¹
MDWCPIHLWHVCFN [Peptide-138],kdis,[3]; [9],0.00295 s⁻¹
same,kon,[3]; [9],59100 M⁻¹ s⁻¹
MDWCPIYLWSECFN [Peptide-139],kdis,[3]; [9],0.00153 s⁻¹
same,kon,[3]; [9],29000 M⁻¹ s⁻¹
MDWCPLHMWHECFS [Peptide-141],kdis,[3]; [9],0.00497 s⁻¹
same,kon,[3]; [9],39000 M⁻¹ s⁻¹
MDWCPLYLWNECFN [Peptide-142],kdis,[3]; [9],0.00252 s⁻¹
same,kon,[3]; [9],36700 M⁻¹ s⁻¹
MDWCPRDLWDLCFA [Peptide-143],kdis,[3]; [9],0.00351 s⁻¹
same,kon,[3]; [9],35900 M⁻¹ s⁻¹
MDWCPRDLWHECFA [Peptide-144],kdis,[3]; [9],0.00277 s⁻¹
same,kon,[3]; [9],30000 M⁻¹ s⁻¹
MDWCPRDLWHLCFS [Peptide-145],kdis,[3]; [9],0.00265 s⁻¹
same,kon,[3]; [9],51100 M⁻¹ s⁻¹
MDWCPRDLWSECFF [Peptide-146],kdis,[3]; [9],0.0031 s⁻¹
same,kon,[3]; [9],38800 M⁻¹ s⁻¹
MDWCPRDLWVHCFA [Peptide-1],kdis,[3]; [9],0.00154 s⁻¹
same,kon,[3]; [9],36400 M⁻¹ s⁻¹
MDWCPRDMWDECFA [Peptide-147],kdis,[3]; [9],0.00433 s⁻¹
same,kon,[3]; [9],28400 M⁻¹ s⁻¹
MDWCPRDMWSECFA [Peptide-148],kdis,[3]; [9],0.0032 s⁻¹
same,kon,[3]; [9],16700 M⁻¹ s⁻¹
MDWCPRDMWSVCFS [Peptide-149],kdis,[3]; [9],0.00812 s⁻¹
same,kon,[3]; [9],21700 M⁻¹ s⁻¹
MDWCPRERWVDCFF [Peptide-116],Kd,"[3]; Table 28, 1:1 model",0.377 µM
same,kdis,"[3]; Table 28, CD28 scFv, 1:1 model",0.0123 s⁻¹
same,kon,"[3]; Table 28, CD28 scFv, 1:1 model",32500 M⁻¹ s⁻¹
MDWCPRERWVDCFF [Peptide-156],kdis,[3]; [9],0.0115 s⁻¹
same,kon,[3]; [9],41500 M⁻¹ s⁻¹
MDWCPRFMWDECFN [Peptide-150],kdis,[3]; [9],0.00364 s⁻¹
same,kon,[3]; [9],27100 M⁻¹ s⁻¹
MDWCPRHMWNYCFA [Peptide-151],kdis,[3]; [9],0.00218 s⁻¹
same,kon,[3]; [9],61900 M⁻¹ s⁻¹
MDWCPRSLWHECFA [Peptide-152],kdis,[3]; [9],0.00201 s⁻¹
same,kon,[3]; [9],38900 M⁻¹ s⁻¹
MDWCPRYLWHVCFA [Peptide-153],kdis,[3]; [9],0.00187 s⁻¹
same,kon,[3]; [9],88900 M⁻¹ s⁻¹
MDWCPVHLWSVCFA [Peptide-155],kdis,[3]; [9],0.00443 s⁻¹
same,kon,[3]; [9],92300 M⁻¹ s⁻¹
MHWCPVDLWYLCYN [Peptide-154],kdis,[3]; [9],0.00186 s⁻¹
same,kon,[3]; [9],88200 M⁻¹ s⁻¹
MNWCPKDIWYLCFN [Peptide-140],kdis,[3]; [9],0.00684 s⁻¹
same,kon,[3]; [9],77000 M⁻¹ s⁻¹
"SCAAAASYAWPYCL [Peptide-52, alanine scanning peptide of Peptide-44]",IC50,[1]; [5],> 100 µM
same,IC50,[2]; [6],> 100 µM
"SCAAGASAAWPYCL [Peptide-54, alanine scanning peptide of Peptide-44]",IC50,[1]; [5],> 100 µM
same,IC50,[2]; [6],> 100 µM
"SCAAGASYAAPYCL [Peptide-55, alanine scanning peptide of Peptide-44]",IC50,[1]; [5],> 100 µM
same,IC50,[2]; [6],> 100 µM
"SCAAGASYAWAYCL [Peptide-56, alanine scanning peptide of Peptide-44]",IC50,[1]; [5],> 100 µM
same,IC50,[2]; [6],> 100 µM
"SCAAGASYAWPYCA [Peptide-58, alanine scanning peptide of Peptide-44]",IC50,[2]; [6],> 100 µM
SCAAGASYAWPYCL [Peptide-44],IC50,[2]; [10],> 100 µM
WCWDYKLWVPMTCP [Peptide-37],IC50,"[1]; Table 16, 0-100 μM peptide, read-out: Competition ELISA IC50",> 100 µM
same,IC50,[2]; [10],> 100 µM
"YCAAHAWQYINKCL [Peptide-60, alanine scanning peptide of Peptide-39]",IC50,[1]; [5],> 100 µM
same,IC50,[2]; [6],> 100 µM
"YCAGAAWQYINKCL [Peptide-61, alanine scanning peptide of Peptide-39]",IC50,[1]; [5],> 100 µM
same,IC50,[2]; [6],> 100 µM
"YCAGHAWQAINKCL [Peptide-64, alanine scanning peptide of Peptide-39]",IC50,[1]; [5],> 100 µM
same,IC50,[2]; [6],> 100 µM
"YCAGHAWQYANKCL [Peptide-65, alanine scanning peptide of Peptide-39]",IC50,[2]; [6],> 100 µM
YCAGHAWQYINKCL [Peptide-39],IC50,[2]; [10],> 100 µM
same,Off rate t½,[4],42 s
same,Kd,[4],2.02 µM
same,t½,[4],36 s
YCAGHSPINIGKCL [Peptide-36],IC50,[2]; [10],> 100 µM
"YCEGHAPEYIAKCL [Peptide-73, optimization library of Peptide-39]",Off rate t½,[4],24 s
same,Kd,[4],0.831 µM
same,t½,[4],24 s
"YCEGHLPEYIEKCL [Peptide-72, optimization library of Peptide-39]",Off rate t½,[4],30 s
same,Kd,[4],0.926 µM
same,t½,[4],30 s
"YCEGHLPEYIQKCL [Peptide-86, optimization library of Peptide-39]",Off rate t½,[4],54 s
same,t½,[4],60 s
"YCEGHLPEYIWKCL [Peptide-87, optimization library of Peptide-39]",Off rate t½,[4],54 s
"YCEGHLPEYLAKCL [Peptide-79, optimization library of Peptide-39]",Off rate t½,[4],60 s
same,Kd,[4],0.0447 µM
same,t½,[4],60 s
"YCEGHLPEYREKCL [Peptide-78, optimization library of Peptide-39]",Off rate t½,[4],36 s
same,t½,[4],36 s
"YCEGHLPEYRNKCL [Peptide-84, optimization library of Peptide-39]",Off rate t½,[4],48 s
same,Kd,[4],0.11 µM
same,t½,[4],48 s
"YCWSHSPPFIKKCY [Peptide-83, optimization library of Peptide-39]",IC50,[1]; [7],> 100 µM
